# Reference: patent US20220400670A1, “PROTOPANAXATRIOL (PPT)-TYPE COMPOUNDS AS ACTIVE INGREDIENTS IN INSECTICIDE PRODUCTS” (priority 2019, published 2022)
# Marks after values point to notes of the source that are not given here.
# What was measured:
# [1] = tested on: Silverleaf whitefly biotype B (neonicotinoid-sensitive strain); assay: Lab tests in cotton: nymph mortality of silverleaf whitefly biotype B; type: in vivo, Bemisia tabaci; details: cotton plants; acetamiprid-treated (FIG. 3A)
# Description: (§1) Cotton plants were grown in pots and sprayed with the indicated materials using a hand-sprayer. 20-25 females of Silverleaf whitefly biotype B (neonicotinoid-sensitive strain) or biotype Q (neonicotinoid-resistant strain) were transferred to each pot and attached to the treated leaves. Nymphs mortality was evaluated 1 and 2 weeks after treatment application and determined by percent (%) of pupation.
# [2] = tested on: Silverleaf whitefly biotype Q (neonicotinoid-resistant strain); assay: Lab tests in cotton: nymph mortality of silverleaf whitefly biotype Q; type: in vivo, Bemisia tabaci; details: cotton plants
# Description: as §1
# Thrips tabaci [3] = assay: Field tests in cauliflower: Thrips on leaves and Thrips-induced damage; type: in vivo; details: another experiment, diafenthiuron 375 g/ha, PPT 400 g/ha; for Thrips adults per leaf / Thrips larva per leaf: cauliflower
# Source text: Cauliflower plants of White Corona variety at 20-30 cm height were sprayed twice at a 7 days interval with the indicted materials at a volume of 400-500 liter per hectare, using 3-nozzled ECHO backpack sprayer. The experiment included 4 repeats in random blocks of […] plants growth, each repeat at an area of 20 m^2. plots having high levels of Thrips tabaci (Thrips) infestation (5-10 Thrips per leaf) at uniform distribution at the beginning of the experiment were chosen for analysis, and 10 leaves per plot were picked and assessed for Thrips number. The number of Thrips adults or larva on each leaf was counted using OptiVISOR® magnifying device. The number of silverleaf whitefly (SLW) nymphs on each leaf was also counted using OptiVISOR® magnifying device.
# At the end of the experiment the damage to the upper side of leaves caused by Thrips infestation was assessed on a scale of 0-5, where 0 equals no damage and 5 equals scraping on the leaf's blade (surface).
# [4] = tested on: Spodoptera littoralis stage 2-3 larva; assay: Screening assay for lethality; type: in vivo; details: PPT 50 ppm added to artificial medium; 3 screens, 4 larva replicates each
# Description: Spodoptera littoralis stage 2-3 larva were grown in entomology trays on artificial medium. Treatment with PPT was effected by the addition of PPT (50 ppm) to the medium and lethality was assessed. The screening assay was repeated 3 times, with 4 larva replicates in each screen.
# Thrips tabaci [5] = assay: Field tests in cucumber: number of Thrips on leaves; type: in vivo; details: second experiment
# Source text: Cucumber plants of kingstar variety at 170-190 cm height were sprayed twice at a 4 days interval with the indicted materials at a volume of 400-600 liter per hectare, using 3-nozzled ECHO backpack sprayer. The experiment included 4 repeats in random blocks of cucumber plants growth, each repeat at an area of 10-16 m^2. Plots having high levels of Thrips tabaci (Thrips) infestation (5-10 Thrips per leaf) at uniform distribution at the beginning of the experiment were chosen for analysis, and 10 leaves at shoulder height were picked and the number of Thrips was determined for each leaf.
# [6] = tested on: Pink Bollworm (Pectinophora gossypiella); assay: Lab tests on pink bollworm eggs: hatching and larva development; type: in vivo; details: 0.15% PPT solution, 5 repeats
# Source text: Paper cuttings with Egg clusters of pink bollworm were soaked in a 0.15% PPT solution, and hatching and larva development were observed compared to untreated controls (UTC).
# Aphids (Aphis gossypii) = assay: Field tests in cotton: number of Aphids; type: in vivo; details: 6 days after the third application; EOS 1%, spinosad 60.5 g/ha, PPT 100 or 300 g/ha (FIG. 4B)
# Source text: Cotton plants were sprayed 3-4 times at 6-7 days interval with the indicated materials at a volume of 400 liter per hectare. The experiment included 4-5 repeats in random blocks of cotton plants growth, each repeat at an area of 8-10 m^2. The number of Thrips adults or larva, as well as the number of Aphids (Aphis gossypii), on each leaf was counted using OptiVISOR® magnifying device.
# [7] = 4 DPA, neem oil 1%, PPT alone 225 g/ha
# [8] = 9 DPA, neem oil 1%, PPT alone 225 g/ha
# [9] = Day 0 (baseline), neem oil 1%, PPT alone 225 g/ha
compound,measurement,setting,value
"C/C(=N\C#N)N(C)Cc1ccc(Cl)nc1 [Acetamiprid, reference compound]","nymph mortality of SLW biotype B, determined by percent of pupation",[1],efficient in eliminating SLW nymphs
same,"nymph mortality of SLW biotype Q, determined by percent of pupation",[2]; acetamiprid 10 ppm (FIG. 3B),had no effect
"CC(C)c1cc(Oc2ccccc2)cc(C(C)C)c1NC(=S)NC(C)(C)C [Diafenthiuron, reference compound]",% efficacy on Thrips larva in cauliflower leaves,Thrips tabaci [3]; 7 DPA,10%
same,% efficacy on Thrips larva in cauliflower leaves,Thrips tabaci [3]; 14 DPA,0%
same,Thrips adults per leaf,Thrips tabaci [3]; 7 DPA,1.3 per leaf
same,Thrips larva per leaf,Thrips tabaci [3]; 7 DPA,13.9 per leaf
same,Thrips adults per leaf,Thrips tabaci [3]; 14 DPA,2.1 per leaf
same,Thrips larva per leaf,Thrips tabaci [3]; 14 DPA,9.8 per leaf
same,Thrips adults per leaf,Thrips tabaci [3]; Day 0 (baseline),2.9 per leaf
same,Thrips larva per leaf,Thrips tabaci [3]; Day 0 (baseline),13.0 per leaf
"CC(C)=CCC[C@](C)(O)[C@H]1CC[C@]2(C)[C@@H]1[C@H](O)C[C@@H]1[C@@]3(C)CC[C@H](O)C(C)(C)[C@@H]3[C@@H](O)C[C@]12C [PPT, Protopanaxatriol]",% efficacy on Thrips larva in cauliflower leaves,Thrips tabaci [3]; 7 DPA,60%
same,% efficacy on Thrips larva in cauliflower leaves,Thrips tabaci [3]; 14 DPA,60%
same,Thrips adults per leaf,Thrips tabaci [3]; 7 DPA,0.6 per leaf
same,Thrips larva per leaf,Thrips tabaci [3]; 7 DPA,5.9 per leaf
same,Thrips adults per leaf,Thrips tabaci [3]; 14 DPA,"0.48^a,b per leaf"
same,Thrips larva per leaf,Thrips tabaci [3]; 14 DPA,"4.4^a,b per leaf"
same,Thrips adults per leaf,Thrips tabaci [3]; Day 0 (baseline),3.0 per leaf
same,Thrips larva per leaf,Thrips tabaci [3]; Day 0 (baseline),16.5 per leaf
same,lethality to larva,[4],lethal
same,% efficacy on Thrips in cucumber leaves,"Thrips tabaci [5]; 4 DPA, PPT 500 g/ha",65.8%
same,Number of Thrips adults on 10 cucumber leaves,"Thrips tabaci [5]; 4 DPA, PPT 500 g/ha",42.5
same,Number of Thrips larva on 10 cucumber leaves,"Thrips tabaci [5]; 4 DPA, PPT 500 g/ha",30.0^a
same,Number of total Thrips (adults and larva) on 10 cucumber leaves,"Thrips tabaci [5]; 4 DPA, PPT 500 g/ha",72.5^a
same,% efficacy on Thrips in cucumber leaves,Thrips tabaci [5]; [7],41.4%
same,Number of Thrips adults on 10 cucumber leaves,Thrips tabaci [5]; [7],78.3
same,Number of Thrips larva on 10 cucumber leaves,Thrips tabaci [5]; [7],45.8^a
same,Number of total Thrips (adults and larva) on 10 cucumber leaves,Thrips tabaci [5]; [7],124.0
same,Number of Thrips adults on 10 cucumber leaves,"Thrips tabaci [5]; 9 DPA, PPT 500 g/ha",18.0
same,Number of Thrips larva on 10 cucumber leaves,"Thrips tabaci [5]; 9 DPA, PPT 500 g/ha",13.0
same,Number of total Thrips (adults and larva) on 10 cucumber leaves,"Thrips tabaci [5]; 9 DPA, PPT 500 g/ha",31.0
same,Number of Thrips adults on 10 cucumber leaves,Thrips tabaci [5]; [8],22.3
same,Number of Thrips larva on 10 cucumber leaves,Thrips tabaci [5]; [8],38.8
same,Number of total Thrips (adults and larva) on 10 cucumber leaves,Thrips tabaci [5]; [8],61.0
same,Number of Thrips adults on 10 cucumber leaves,"Thrips tabaci [5]; Day 0 (baseline), PPT 500 g/ha",41.8
same,Number of Thrips larva on 10 cucumber leaves,"Thrips tabaci [5]; Day 0 (baseline), PPT 500 g/ha",110.0
same,Number of total Thrips (adults and larva) on 10 cucumber leaves,"Thrips tabaci [5]; Day 0 (baseline), PPT 500 g/ha",151.8
same,Number of Thrips adults on 10 cucumber leaves,Thrips tabaci [5]; [9],36.0
same,Number of Thrips larva on 10 cucumber leaves,Thrips tabaci [5]; [9],95.8
same,Number of total Thrips (adults and larva) on 10 cucumber leaves,Thrips tabaci [5]; [9],131.8
same,Average number of hatchings,[6]; day 9 after treatment,0.2
same,Average number of larva,[6]; day 16 post treatment,0
same,Average number of late hatchings,[6]; day 16 post treatment,1.8
same,mortality of resistant SLW biotype (Q) nymphs,"[2]; PPT 0.075% (0.5x) or 0.15% (1x), dose-dependent (FIG. 3B)",up to 93%
spinosad,number of Aphids on the cotton plants,Aphids (Aphis gossypii),little or no effect
